How the values were obtained:
E. coli K12 BW25113 = test: ISFET chip detection of potassium ion efflux after addition of antibacterial agent, positive control; type: cell-based; conditions: in SM buffer, compared to negative control BL21, FIG. 12
Description: In this example, the bacteriocin Colicin A9 was combined with E. coli K12 BW25113 as the positive control. As negative controls, Colicin A9 was combined with Staphylococcus aureus 8325, and Colicin A9 was combined with Pseudomonas aeruginosa (PA01). Experiments were performed as described above for Example 1, using the ISFET system 600.
In this example, the Polymyxin B antibiotic (PMB) was combined with E. coli K12 BW25113 in SM buffer as the positive control. As the negative control, Polymyxin B antibiotic (PMB) combined with E. coli K12 BL21 (DE3-Δtail) (referred to as BL21) in SM buffer. Experiments were performed as described above for Example 1, using the ISFET system 600.

[1] = test system: Staphylococcus aureus 8325; test: ISFET chip detection of potassium ion efflux after addition of lysostaphin, positive control; type: cell-based; conditions: compared to negative controls E. coli K12 BW25113 and P. aeruginosa (PA01), FIG. 11
Description: In this example, the lysostaphin from Staphylococcus simulans was combined with Staphylococcus aureus 8325 as the positive control. As negative controls, lysostaphin from Staphylococcus simulans was combined with E. coli K12 BW25113, and lysostaphin from Staphylococcus simulans was combined with Pseudomonas aeruginosa (PA01).

## Polymyxin B
E. coli K12 BW25113
  ISFET output from efflux of potassium ions: output increases

## lysostaphin: lysostaphin from Staphylococcus simulans
[1]
  ISFET output from efflux of potassium ions: output increases
